Assay results published in US20100179225A1, “POI Prevention” (CYTOKINE PHARMASCIENCES, INC., priority 2008, published 2010).

Legend:
nitric oxide in serum = assay: Nitrite and nitrate in serum after small intestinal transplantation (Nitrate/Nitrite Colorimetric Assay kit); assay type: in vivo, Lewis rats; conditions: 1 mg/kg i.v.
Procedure: (§1) Syngeneic orthotopic small intestinal transplantation was performed in Lewis rats as previously described (Schwarz N T, Nakao A, Nalesnik M A, Kalff J C, Murase N, Bauer A J. Protective effects of ex vivo graft radiation and tacrolimus on syngeneic transplanted rat small bowel motility. Surgery 2002; 131: 413-423). […] Then the graft vascular bed was perfused with chilled UW solution (University of Wisconcin) and the intestinal lumen was irrigated with 50 ml cold 0.9% NaCl solution containing […]. neomycin sulfate (Uro Nebacetin N, Nycomed, Germany). The graft was stored in cold UW solution during the preparation of the recipient. An end-to-side anastomosis between the graft aorta and the recipient infra-renal aorta, and between the graft vein and recipient vena cava, was performed. Approximately 80% of the recipient intestine was removed and enteric continuity was restored by proximal and distal end-to-end intestinal anastomoses.
(§2) To investigate the effect of CPSI-2364 on postoperative small bowel ischemia/reperfusion injury and muscular function, CPSI-2364 (1 mg/kg bodyweight, solved in 2.5% mannitol) or vehicle (2.5% mannitol) were administered intravenously once to the donor and the recipient 90 minutes before the beginning of the organ retrieval operation as well as the transplantation procedure that was described above. […]

IL-6 = assay: Serum IL-6 after small intestinal transplantation (ELISA); assay type: in vivo, Lewis rats; conditions: 1 mg/kg i.v.
Procedure: as §1, §2

JNK/SAPK = conditions: v-myc immortalized spleen derived macrophage cell line; Lowenberg et al. J Immunol 2005; cited from earlier work

With `C/C(=N\NC(=N)N)c1cc(NC(=O)CCCCCCCCC(=O)Nc2cc(/C(C)=N/NC(=N)N)cc(/C(C)=N/NC(=N)N)c2)cc(/C(C)=N/NC(=N)N)c1` [Semapimod] the “nitric oxide levels within the serum” value (nitric oxide in serum; 3 hours after reperfusion) was 0.17 µmol/L, the “nitric oxide levels within the serum” value (nitric oxide in serum; 18 hours after reperfusion) was 1.69 µmol/L and the “release of IL-6 (serum)” value (IL-6; after 3 hours) was 345 pg/mL. The “release of IL-6 (serum)” value (IL-6; after 18 hours) was 35 pg/mL and the JNK/SAPK phosphorylation (JNK/SAPK) was “reduce JNK/SAPK phosphorylation”.
